Here are results for 31 molecules from ChEMBL document CHEMBL3400036, “Novel 4-substituted-N,N-dimethyltetrahydronaphthalen-2-amines: synthesis, affinity, and in silico docking studies at serotonin 5-HT2-type and histamine H1 G protein-coupled receptors” (Bioorg Med Chem, 2015).

SMILES strings stand for the structures.

Common to all, as to format: cell-based
The target of experiment [1] is 5-hydroxytryptamine receptor 2B (Homo sapiens, UniProt P41595). The experiment is described as follows: Displacement of [3H]Mesulergine from human 5-HT2B receptor expressed in HEK293 cells by scintillation counting analysis.
Sequence of 5-hydroxytryptamine receptor 2B (P41595 whole entry): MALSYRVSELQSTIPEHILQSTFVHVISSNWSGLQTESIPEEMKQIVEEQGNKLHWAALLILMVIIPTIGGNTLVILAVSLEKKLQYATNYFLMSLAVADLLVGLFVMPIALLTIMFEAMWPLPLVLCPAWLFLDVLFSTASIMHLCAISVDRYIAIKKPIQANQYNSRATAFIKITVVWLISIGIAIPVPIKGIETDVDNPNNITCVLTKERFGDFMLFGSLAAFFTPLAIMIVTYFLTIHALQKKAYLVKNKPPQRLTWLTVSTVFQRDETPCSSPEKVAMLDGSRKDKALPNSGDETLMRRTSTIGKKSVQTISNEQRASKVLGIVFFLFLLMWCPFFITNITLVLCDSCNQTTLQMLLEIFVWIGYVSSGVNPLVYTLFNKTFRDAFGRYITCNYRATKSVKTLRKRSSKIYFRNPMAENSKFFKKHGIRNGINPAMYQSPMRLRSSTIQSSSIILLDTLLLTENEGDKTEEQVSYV
The target in experiment [2] is 5-hydroxytryptamine receptor 2A (Homo sapiens, UniProt P28223). As to the kind of experiment: Displacement of [3H]Ketanserin from human 5-HT2A receptor expressed in HEK293 cells by scintillation counting analysis. Background: Displacement assays read how much labelled ligand stays bound in the presence of the test substance.
Sequence of 5-hydroxytryptamine receptor 2A (P28223 whole entry): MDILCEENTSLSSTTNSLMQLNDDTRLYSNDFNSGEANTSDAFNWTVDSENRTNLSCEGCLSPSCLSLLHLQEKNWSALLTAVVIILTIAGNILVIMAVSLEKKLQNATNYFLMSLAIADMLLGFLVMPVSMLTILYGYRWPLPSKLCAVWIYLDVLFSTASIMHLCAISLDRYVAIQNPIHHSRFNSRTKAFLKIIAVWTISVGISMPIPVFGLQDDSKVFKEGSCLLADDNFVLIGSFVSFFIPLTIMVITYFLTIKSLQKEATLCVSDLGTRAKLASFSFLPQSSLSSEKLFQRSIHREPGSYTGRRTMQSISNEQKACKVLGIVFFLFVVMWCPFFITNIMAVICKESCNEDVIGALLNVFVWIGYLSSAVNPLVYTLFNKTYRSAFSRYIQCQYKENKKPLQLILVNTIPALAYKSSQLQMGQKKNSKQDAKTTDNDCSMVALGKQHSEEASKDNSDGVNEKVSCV
Experiment [3] deals with T1, 5-hydroxytryptamine receptor 2C (Homo sapiens, UniProt P28335).
T1 sequence (P28335 whole entry): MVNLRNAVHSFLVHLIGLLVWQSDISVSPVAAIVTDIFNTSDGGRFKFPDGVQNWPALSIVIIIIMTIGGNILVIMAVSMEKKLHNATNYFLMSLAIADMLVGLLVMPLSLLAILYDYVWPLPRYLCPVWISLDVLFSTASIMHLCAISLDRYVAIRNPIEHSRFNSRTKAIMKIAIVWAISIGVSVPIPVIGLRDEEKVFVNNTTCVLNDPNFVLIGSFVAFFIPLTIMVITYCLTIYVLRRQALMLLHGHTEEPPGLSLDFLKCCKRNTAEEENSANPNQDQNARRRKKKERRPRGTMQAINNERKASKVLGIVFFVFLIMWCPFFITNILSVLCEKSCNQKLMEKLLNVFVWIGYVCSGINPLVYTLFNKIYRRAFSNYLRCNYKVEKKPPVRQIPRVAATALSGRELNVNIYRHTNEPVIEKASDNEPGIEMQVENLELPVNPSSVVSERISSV
The experiment is described as follows: Displacement of [3H]Mesulergine from human 5-HT2C-INI receptor expressed in HEK293 cells by scintillation counting analysis.

Take `CN(C)[C@@H]1Cc2ccccc2[C@@H](c2cccc([N+](=O)[O-])c2)C1`: the Ki (in general, a dissociation constant, usually derived from enzyme kinetics or from competition with a known ligand) is 70 nM in experiment [1], 74 nM in experiment [2] and 10 nM in experiment [3].

In the case of `CN(C)[C@H]1Cc2ccccc2[C@H](c2ccc(C(F)(F)F)cc2)C1`, the inhibition constant Ki in experiment [1] stood at 250 nM.

Consider `CN(C)[C@@H]1Cc2ccccc2[C@@H](c2cccc(-c3ccccc3)c2)C1`, for which the figures for the inhibitory constant (Ki) in experiment [1] and in experiment [3] were 73 nM and 5 nM, respectively.

For `CN(C)[C@@H]1Cc2ccccc2[C@@H](c2ccccc2Br)C1`, the Ki in experiment [1] turned out to be 650 nM; in experiment [2], 1100 nM; in experiment [3], 70 nM.

With `CN(C)[C@H]1Cc2ccccc2[C@H](c2cccc(Cl)c2)C1`, the Ki in experiment [1] came out at 50 nM; in experiment [2], […]; in experiment [3], […].

With `Cc1ccccc1[C@H]1C[C@H](N(C)C)Cc2ccccc21`, the values for the Ki in experiment [1], in experiment [2] and in experiment [3] were 800 nM, 1000 nM and 1600 nM, respectively.

In experiment [1], `CN(C)[C@@H]1Cc2ccccc2[C@@H](C2CCCCCCC2)C1` registered a Ki of 10 nM.

As to `CN(C)[C@@H]1Cc2ccccc2[C@@H](c2cccc(Cl)c2)C1`, the Ki in experiment [1] came out at 30 nM; in experiment [2], […]; in experiment [3], […].

Regarding `CN(C)[C@@H]1Cc2ccccc2[C@@H](C2CCCCC2)C1`, the Ki in experiment [1] turned out to be 20 nM; in experiment [2], 20 nM; in experiment [3], 7 nM.

On to `CN(C)[C@H]1Cc2ccccc2[C@H](c2ccccc2Cl)C1`, for which the figures for the Ki in experiment [1], in experiment [2] and in experiment [3] were 710 nM, 2800 nM and 50 nM, respectively.

`CN(C)[C@@H]1Cc2ccccc2[C@@H](c2ccc(Cl)cc2)C1`: the values for the inhibition constant Ki in experiment [1], in experiment [2] and in experiment [3] were 300 nM, 250 nM and 120 nM, respectively.

Turning to `CN(C)[C@H]1Cc2ccccc2[C@H](c2ccc(Br)cc2)C1`, the Ki in experiment [1] was found to be 30 nM; in experiment [2] it was 60 nM; in experiment [3] it was 70 nM.

Take `CN(C)[C@H]1Cc2ccccc2[C@H](c2ccccc2)C1`: the results for the Ki in experiment [1] and in experiment [2] were 240 nM and 470 nM, respectively.

`CN(C)[C@H]1Cc2ccccc2[C@H](C2CCCCC2)C1`: the figures for the Ki in experiment [1], in experiment [2] and in experiment [3] were 170 nM, 80 nM and 30 nM, respectively.

As for `CN(C)[C@H]1Cc2ccccc2[C@H](c2cccc([N+](=O)[O-])c2)C1`, the Ki in experiment [1] came to 20 nM; in experiment [2] it was 500 nM; in experiment [3], 120 nM.

As to `CN(C)[C@@H]1Cc2ccccc2[C@@H](c2cccc(F)c2)C1`, the Ki turned out to be 70 nM in experiment [1] and 43 nM in experiment [3].

For the molecule `CN(C)[C@H]1Cc2ccccc2[C@H](c2ccc(Cl)cc2)C1`, the figures for the inhibition constant (Ki) in experiment [1], in experiment [2] and in experiment [3] were 80 nM, 50 nM and 55 nM, respectively.

As for `CN(C)[C@@H]1Cc2ccccc2[C@@H](c2cccc(C(F)(F)F)c2)C1`, the Ki stood at 60 nM in experiment [1], 80 nM in experiment [2] and 10 nM in experiment [3].

Consider `CN(C)[C@H]1Cc2ccccc2[C@H](c2cccc(-c3ccccc3)c2)C1`, for which the Ki in experiment [1] came to 200 nM; in experiment [3] it was 1000 nM.

For `CN(C)[C@@H]1Cc2ccccc2[C@@H](c2ccc(Br)cc2)C1`, the figures for the Ki in experiment [1], in experiment [2] and in experiment [3] were 210 nM, 220 nM and 100 nM, respectively.

In the case of `CN(C)[C@H]1Cc2ccccc2[C@H](c2cccc(Br)c2)C1`, the inhibitory constant (Ki) in experiment [1] was 40 nM; in experiment [2], 260 nM; in experiment [3] it was 200 nM.

With `CN(C)[C@@H]1Cc2ccccc2[C@@H](c2ccccc2)C1`, the results for the Ki in experiment [1] and in experiment [2] were 94 nM and 100 nM, respectively.

For the molecule `Cc1ccccc1[C@@H]1C[C@@H](N(C)C)Cc2ccccc21`, the inhibitory constant (Ki) turned out to be 6000 nM in experiment [1], 700 nM in experiment [2] and 2000 nM in experiment [3].

`CN(C)[C@H]1Cc2ccccc2[C@H](c2cccc(C(F)(F)F)c2)C1`: the Ki in experiment [1] was 200 nM; in experiment [2], 1300 nM; in experiment [3] it was 230 nM.

Regarding `CN(C)[C@H]1Cc2ccccc2[C@H](c2ccc(F)cc2)C1`, the Ki turned out to be 66 nM in experiment [1], 71 nM in experiment [2] and 75 nM in experiment [3].

Take `CN(C)[C@H]1Cc2ccccc2[C@H](c2cccc(F)c2)C1`: the inhibitory constant (Ki) in experiment [1] stood at 110 nM; in experiment [3] it was 200 nM.

On to `CN(C)[C@H]1Cc2ccccc2[C@H](c2ccccc2Br)C1`, for which the Ki in experiment [1] is 4100 nM; in experiment [2], 760 nM; in experiment [3], 78 nM.

`CN(C)[C@H]1Cc2ccccc2[C@H](C2CCCCCCC2)C1` returned a Ki in experiment [1] of 40 nM.

For `CN(C)[C@@H]1Cc2ccccc2[C@@H](c2cccc(Br)c2)C1`, the Ki in experiment [1] is 8 nM; in experiment [2] it was 20 nM; in experiment [3], 4 nM.

Consider `CN(C)[C@@H]1Cc2ccccc2[C@@H](c2ccc(F)cc2)C1`, for which the Ki in experiment [1] was 400 nM; in experiment [2], 140 nM; in experiment [3] it was 68 nM.

Regarding `CN(C)[C@@H]1Cc2ccccc2[C@@H](c2ccccc2Cl)C1`, the Ki in experiment [1] stood at 300 nM; in experiment [2], 2400 nM; in experiment [3], 290 nM.
